# Measured values published in ChEMBL document CHEMBL4665727, “Discovery of biphenyl pyrazole scaffold for neurodegenerative diseases: A novel class of acetylcholinesterase-centered multitargeted ligands” (Bioorg Med Chem Lett, 2020).
# pEC50, pIC50, pKd: −log10 of the molar value. Activity calls are given as the source filed them. The calls are words filed in the database; no cut-off is given here.
# Key:
# SH-SY5Y = assay: Protection against amyloid beta oligomer-induced cytotoxicity in human SH-SY5Y cells expressing wild-type Tau assessed as cell viability at 10 uM by MTT assay; format: functional; settings: read-out: Activity
# [1] = molecular target: T1, Microtubule-associated protein tau (Homo sapiens, UniProt P10636); assay: Inhibition of tau oligomerization in human […] cells by TR-FRET assay; format: cell-based
# T1 sequence (P10636 whole entry): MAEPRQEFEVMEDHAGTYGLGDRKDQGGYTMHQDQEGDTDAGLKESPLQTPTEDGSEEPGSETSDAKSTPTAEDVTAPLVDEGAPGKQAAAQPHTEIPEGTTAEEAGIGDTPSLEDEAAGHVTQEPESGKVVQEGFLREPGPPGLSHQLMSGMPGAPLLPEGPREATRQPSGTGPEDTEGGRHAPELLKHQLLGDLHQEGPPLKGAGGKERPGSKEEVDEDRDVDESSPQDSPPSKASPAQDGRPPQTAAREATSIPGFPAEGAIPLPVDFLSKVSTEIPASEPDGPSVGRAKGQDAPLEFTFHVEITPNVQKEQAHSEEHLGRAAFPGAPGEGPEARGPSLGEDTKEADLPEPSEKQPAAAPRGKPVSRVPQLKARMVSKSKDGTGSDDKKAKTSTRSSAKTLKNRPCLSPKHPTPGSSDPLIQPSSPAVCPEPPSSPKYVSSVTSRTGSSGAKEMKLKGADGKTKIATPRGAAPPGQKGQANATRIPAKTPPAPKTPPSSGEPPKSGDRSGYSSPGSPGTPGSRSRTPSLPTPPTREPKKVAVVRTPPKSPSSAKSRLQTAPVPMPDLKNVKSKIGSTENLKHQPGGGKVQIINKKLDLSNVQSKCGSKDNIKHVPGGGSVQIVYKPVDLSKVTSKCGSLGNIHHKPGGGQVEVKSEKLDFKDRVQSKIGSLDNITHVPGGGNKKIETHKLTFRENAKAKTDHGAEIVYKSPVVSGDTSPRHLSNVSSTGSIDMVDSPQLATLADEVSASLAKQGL
# [2] = Stability of compound in gastric fluid; format: physicochemical; settings: simulated gi fluid
# [3] = Permeability in human Caco-2 cells; format: ADME, cell-based
# [4] = molecular target: T1, Microtubule-associated protein tau; assay: Binding affinity to tau (unknown origin) assessed as dissociation constant by isothermal titration calorimetry
# HEL 299 = assay: Cytotoxicity against HEL 299 cells by MTT assay; format: cell-based; settings: human
# [5] = molecular target: T1, Microtubule-associated protein tau; assay: Binding affinity to tau (unknown origin) assessed as dissociation constant by microscale thermophoresis assay
# Acetylcholinesterase [6] = molecular target: T2, Acetylcholinesterase (Homo sapiens, UniProt P22303); assay: Inhibition of AChE (unknown origin) using acetylthiocholine iodide as substrate by UV-vis spectrophotometry based Ellman's method
# T2 sequence (P22303 whole entry): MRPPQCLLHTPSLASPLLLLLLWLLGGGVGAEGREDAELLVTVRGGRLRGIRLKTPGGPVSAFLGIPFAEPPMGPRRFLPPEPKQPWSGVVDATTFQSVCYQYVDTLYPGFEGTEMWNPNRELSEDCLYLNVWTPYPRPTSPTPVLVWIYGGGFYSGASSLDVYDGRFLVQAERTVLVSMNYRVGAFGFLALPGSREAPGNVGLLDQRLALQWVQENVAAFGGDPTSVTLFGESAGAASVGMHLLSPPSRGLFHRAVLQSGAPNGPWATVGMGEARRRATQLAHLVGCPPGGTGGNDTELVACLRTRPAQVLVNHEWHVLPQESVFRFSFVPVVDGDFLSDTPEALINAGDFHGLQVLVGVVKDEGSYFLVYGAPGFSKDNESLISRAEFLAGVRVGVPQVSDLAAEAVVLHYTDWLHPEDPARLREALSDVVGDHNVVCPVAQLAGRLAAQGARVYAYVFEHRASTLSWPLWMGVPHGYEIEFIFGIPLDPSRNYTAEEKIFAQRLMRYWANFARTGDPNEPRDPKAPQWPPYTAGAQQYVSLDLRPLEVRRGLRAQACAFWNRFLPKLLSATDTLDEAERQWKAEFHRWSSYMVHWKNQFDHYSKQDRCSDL
# [7] = Metabolic stability in human plasma; format: ADME, cell-free
# Acetylcholinesterase [8] = molecular target: T2, Acetylcholinesterase; assay: Binding affinity to AChE (unknown origin) assessed as dissociation constant by SPR analysis
# [9] = molecular target: T1, Microtubule-associated protein tau; assay: Binding affinity to tau (unknown origin) assessed as dissociation constant by SPR analysis
# [10] = molecular target: T1, Microtubule-associated protein tau; assay: Binding affinity to tau (unknown origin) assessed as exothermal interaction by isothermal titration calorimetry
# [11] = Stability of compound in intestinal juice
# [12] = Permeability of compound by PAMPA-BBB assay
# Acetylcholinesterase [13] = molecular target: T2, Acetylcholinesterase; assay: Mixed inhibition of AChE (unknown origin) using acetylthiocholine iodide as substrate by UV-vis spectrophotometry based Lineweaver-burk plot analysis
smiles,measurement,setting,value
CC(C)c1ccc2c(c1)c(SC(C)(C)C)c(CC(C)(C)C(=O)O)n2Cc1ccc(Cl)cc1,viability at 10 µM,SH-SY5Y,52.4%
Nc1c2c(nc3ccccc13)CCCC2 [TACRINE],viability at 10 µM,SH-SY5Y,29.5%
CCn1cc(CNCc2c[nH]nc2-c2ccc(-c3ccccc3)cc2)cn1,pEC50,[1],6.60
same,Stabilty,[2],Stable
same,permeability,[3],Permeable
same,pKd,[4],6.07
same,Activity,HEL 299,Non-Toxic
same,pKd,[5],6.04
same,viability at 10 µM,SH-SY5Y,75.1%
same,pIC50,Acetylcholinesterase [6],6.46
same,Stabilty,[7],Stable
same,pKd,Acetylcholinesterase [8],5.85
same,pKd,[9],6.23
same,deltaH,[10],-36.9 kcal/mol
same,Stability,[11],Stable
same,Papp,[12],33.5 ×10⁻⁶ cm/s
same,inhibition,Acetylcholinesterase [13],Active
COc1cc2c(cc1OC)C(=O)C(CC1CCN(Cc3ccccc3)CC1)C2 (centres undefined) [DONEPEZIL],viability at 10 µM,SH-SY5Y,39.3%
CN(C)c1ccc2c(c1)Sc1cc(N(C)C)ccc1N2 [HYDROMETHYLTHIONINE],viability at 10 µM,SH-SY5Y,32.1%
